Among the data in BindingDB's records for doi:10.1021/jm000455z (Kissei Pharmaceutical, 2001) are EC50 values, retold here.

The experiment is described as follows: Agonistic activity towards beta-3 adrenoceptor. Mean concentration required to produce 50% relaxation of detrusor before the addition in the ferret detrusor.
Regarding `C[C@H](NCCc1ccc(NCC(=O)O)c(Cl)c1)[C@H](O)c1ccc(O)cc1`, it took 0.000933 µM to reach a half-maximal effect (EC50). On to `C[C@H](NCCc1cc(Cl)c(NCC(=O)O)cc1Cl)[C@H](O)c1ccc(O)cc1`, for which the EC50 (as a rule, the concentration giving half of the maximal effect) stood at 0.0617 µM. Compared with the last molecule, the EC50 is about 66-fold higher.

`C[C@H](NCCc1ccc(NCC(=O)O)cc1)[C@H](O)c1ccc(O)cc1` had a concentration for a half-maximal effect (EC50) of 0.024 µM. To `C[C@H](NCCc1ccc(NC(C)(C)C(=O)O)cc1Cl)[C@H](O)c1ccc(O)cc1` belongs 0.00562 µM.

On to `C[C@H](NCCc1cc(Br)c(NCC(=O)O)c(Br)c1)[C@H](O)c1ccc(O)cc1`, for which the EC50 was found to be 0.0813 µM. Molecule `C[C@H](NCCc1cc(Cl)c(N(C)CC(=O)O)c(Cl)c1)[C@H](O)c1ccc(O)cc1` returned an EC50 of 0.158 µM.

In the case of `C[C@H](NCCc1ccc(NCC(=O)O)c(Br)c1)[C@H](O)c1ccc(O)cc1`, the EC50 was determined as 0.575 µM.

Take `C[C@H](NCCc1ccc(NCC(=O)O)c(Cl)c1Cl)[C@H](O)c1ccc(O)cc1`: the EC50 stood at 0.457 µM. Regarding `C[C@H](NCCc1ccc(NCC(=O)O)cc1Cl)[C@H](O)c1ccc(O)cc1`, the response was half-maximal at 0.00724 µM (EC50). Compared with the last molecule, the EC50 is about 63-fold lower.

`C[C@H](NCCc1ccc(N(C)CC(=O)O)cc1)[C@H](O)c1ccc(O)cc1` returned an EC50 of 0.0525 µM. To `C[C@H](NCCc1ccc(NCC(=O)O)c(I)c1)[C@H](O)c1ccc(O)cc1` belongs 0.813 µM; to `C[C@H](NCCc1ccc(N(C)CC(=O)O)c(Cl)c1)[C@H](O)c1ccc(O)cc1`, 0.011 µM.
